Data on 10 molecules can be found in PubChem BioAssay (NCI).

Test systems include HOP-92 NSCLC; SK-OV-3 ovarian; UACC-257 melanoma; DU-145 prostate; CAKI-1 renal; HCT-116 colon; K-562 leukemia; HOP-62 NSCLC; BT-549 breast; OVCAR-4 ovarian.
Holding throughout (experiment): NCI anticancer screen, dose series, 48 h

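Growth conditions: 96-well plates. Treatment: test compound, 48 hours, 5 concentrations. Analysis: linear interpolation between bracketing concentrations; unreached endpoints set to highest concentration. Definition used: TGI = concentration required for complete inhibition of growth.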

With `Brc1ccc2c(-c3nc(-c4c[nH]c5ccccc45)cs3)c[nH]c2c1`, the TGI in the test with HOP-92 NSCLC, with SK-OV-3 ovarian, in the test on UACC-257 melanoma, in the test with DU-145 prostate, in the test on CAKI-1 renal and with HCT-116 colon was over 100 µM throughout. Besides, the TGI is over 100 µM in the test on K-562 leukemia, over 100 µM in the test with HOP-62 NSCLC, over 96.8 µM with BT-549 breast and over 100 µM in the test on OVCAR-4 ovarian.

In the case of `Oc1ccc2c(c1)-c1c(c3cc(O)ccc3n1CCN1CCOCC1)CC2`, the TGI in the test with HOP-92 NSCLC is over 100 µM; in the test with SK-OV-3 ovarian, 81.2 µM; in the test on UACC-257 melanoma it was over 100 µM; in the test with DU-145 prostate it was over 100 µM; in the test with CAKI-1 renal it was 70.5 µM; in the test with HCT-116 colon it was 44.8 µM. Further, the TGI amounted to 41 µM in the test with K-562 leukemia, 72.7 µM with HOP-62 NSCLC, 38.2 µM with BT-549 breast and 67.2 µM in the test with OVCAR-4 ovarian.

As for `COC(=O)c1c(OC(C)=O)ccc2c1c1c(OC(C)=O)c3ccccc3c(OC(C)=O)c1n2Cc1cc(OC)cc(OC)c1`, the TGI is 5.35 µM in the test with HOP-92 NSCLC; 57.8 µM in the test on SK-OV-3 ovarian; over 100 µM in the test on UACC-257 melanoma; over 100 µM with DU-145 prostate; over 100 µM with CAKI-1 renal; 78.3 µM in the test on HCT-116 colon. For the same molecule, the TGI in the test on K-562 leukemia was over 100 µM; in the test with HOP-62 NSCLC it was over 100 µM; in the test on BT-549 breast, 82.1 µM; in the test on OVCAR-4 ovarian, over 100 µM.

For `COCn1c(C)c(C)c2c(=O)oc(=O)[nH]c21`, the TGI in the test with HOP-92 NSCLC, in the test on SK-OV-3 ovarian, with UACC-257 melanoma, in the test on DU-145 prostate, in the test with CAKI-1 renal and in the test with HCT-116 colon was over 100 µM each time. For the same molecule, the TGI with K-562 leukemia, in the test on HOP-62 NSCLC, in the test on BT-549 breast and with OVCAR-4 ovarian was over 100 µM throughout.

In the case of `Oc1nc(N/N=C/c2c[nH]c3ccccc23)[nH]c1/C=C1\C=Nc2ccccc21`, the TGI is 36.9 µM in the test with HOP-92 NSCLC; over 100 µM in the test on SK-OV-3 ovarian; 79.4 µM in the test on UACC-257 melanoma; over 100 µM with DU-145 prostate; over 100 µM in the test on CAKI-1 renal; 36.7 µM with HCT-116 colon. Further, the TGI in the test with K-562 leukemia came out at 27.8 µM; in the test with HOP-62 NSCLC it was 80.9 µM; in the test on BT-549 breast, 60.3 µM; with OVCAR-4 ovarian, 86.1 µM.

As to `Cc1cc2c(cc1-c1cc3c(cc1C)C(C(C)C)=C(O)C(=O)/C3=C\Nc1nc(-c3ccccc3)cs1)/C(=C/Nc1nc(-c3ccccc3)cs1)C(=O)C(O)=C2C(C)C`, the TGI is 55.7 µM in the test on HOP-92 NSCLC; 95.2 µM in the test on SK-OV-3 ovarian; 47 µM with UACC-257 melanoma; 55 µM with DU-145 prostate; over 100 µM in the test with CAKI-1 renal; over 100 µM in the test with HCT-116 colon. Moreover, the TGI in the test on K-562 leukemia is over 100 µM; in the test with HOP-62 NSCLC, 31.7 µM; in the test on BT-549 breast, 89 µM; with OVCAR-4 ovarian it was 86.7 µM.

For the molecule `O=c1c2ccccc2oc2c1ccc1ncccc12`, the TGI with HOP-92 NSCLC stood at 59.3 µM; in the test with SK-OV-3 ovarian, 34.4 µM; with UACC-257 melanoma, 70.6 µM; in the test with DU-145 prostate, 59.5 µM; in the test with CAKI-1 renal, 34.5 µM; with HCT-116 colon, 45.2 µM. Also, the TGI in the test with K-562 leukemia was over 100 µM; with HOP-62 NSCLC, 78.1 µM; in the test on BT-549 breast, 63 µM; with OVCAR-4 ovarian it was 46.1 µM.

Consider `O=[N+]([O-])c1ccc2c(c1)nc(Cc1ccccc1)n2C[C@@H]1CCCN2CCCCC12` (stereo not given in full), for which the TGI is over 100 µM with HOP-92 NSCLC; over 100 µM in the test with SK-OV-3 ovarian; 31.4 µM with UACC-257 melanoma; over 100 µM in the test with DU-145 prostate; over 100 µM with CAKI-1 renal; over 100 µM in the test with HCT-116 colon. The TGI was 49.1 µM in the test with K-562 leukemia, over 100 µM in the test with HOP-62 NSCLC, over 100 µM with BT-549 breast and over 100 µM with OVCAR-4 ovarian.

For the molecule `Cc1ccccc1N=C(N)NC#N`, the TGI in the test with HOP-92 NSCLC, in the test on SK-OV-3 ovarian, in the test with UACC-257 melanoma, with DU-145 prostate, in the test with CAKI-1 renal and in the test on HCT-116 colon was over 100 µM throughout. The TGI in the test on K-562 leukemia, in the test on HOP-62 NSCLC, with BT-549 breast and in the test on OVCAR-4 ovarian was over 100 µM throughout.

For `O=C(CCc1cccc(O)c1)NCCc1cccc(O)c1`, the TGI in the test with HOP-92 NSCLC, in the test with SK-OV-3 ovarian, with UACC-257 melanoma, with DU-145 prostate, in the test with CAKI-1 renal and with HCT-116 colon was over 100 µM each time. Moreover, the TGI in the test on K-562 leukemia, in the test with HOP-62 NSCLC, in the test on BT-549 breast and with OVCAR-4 ovarian was over 100 µM each time.
